In ChEMBL document CHEMBL3991944, “Enantiomers of spiro-oxindole compounds and their uses as therapeutic agents” (2013):
≈ marks a conversion by molar mass, not a printed value. Calls of active or inactive are those of the source.

Assays:
[1] = Solubility of the compound in PEG 400; format: physicochemical
[2] = Solubility of the compound in 60:40 of labrasol/PEG 400; format: physicochemical
[3] = Solubility of the compound in capryol 90; format: physicochemical
[4] = Solubility of the compound in 60:40 of labrasol/capryol 90; format: physicochemical
Rattus norvegicus [5] = experiment: Analgesic activity in rat model of chronic constriction injury-induced neuropathic pain assessed as reversal of pain response at 2% (w/v) administered topically as ointment measured upto 1 hr by electrovonfrey anesthesiometry; format: functional
[6] = Solubility of the compound in propylene glycol; format: physicochemical
[7] = Solubility of the compound in tween 80; format: physicochemical
[8] = Solubility of the compound in labrasol; format: physicochemical
[9] = target: Sodium channel protein type 9 subunit alpha (Homo sapiens) (UniProt Q15858); conditions: HEK293
[10] = Solubility of the compound in 60:40 of labrasol/transcutol; format: physicochemical
Homo sapiens [11] = species: Homo sapiens; experiment: Toxicity in human assessed as increase in discomfort at 0.1% compound solution for 4 consecutive days during phase-1 clinical trial
Homo sapiens [12] = experiment: Toxicity in human assessed as mortality at 4 to 8% (w/w) administered topically as ointment for 21 consecutive days during phase-1 clinical trial; conditions: topical_or_ocular
Homo sapiens [13] = experiment: Toxicity in human assessed as decrease in skin irritation at 4 to 8% (w/w) administered topically as ointment for 21 consecutive days measured 7 days post last dose during phase-1 clinical trial; conditions: topical_or_ocular, 168 h
Rattus norvegicus [14] = experiment: Analgesic activity in rat model of CFA-induced chronic inflammatory pain assessed as increase in Von Frey mechanical paw withdrawal threshold at 8% (w/v) administered topically by electrovonfrey anesthesiometry relative to baseline; format: functional
Homo sapiens [15] = experiment: Toxicity in human assessed as change in pulse rate at 4 to 8% (w/w) administered topically as ointment for 21 consecutive days during phase-1 clinical trial; conditions: topical_or_ocular
Homo sapiens [16] = experiment: Toxicity in human assessed as change in physical appearance at 4 to 8% (w/w) administered topically as ointment for 21 consecutive days during phase-1 clinical trial; conditions: topical_or_ocular
Homo sapiens [17] = experiment: Toxicity in human assessed as decrease in skin irritation at 4 to 8% (w/w) administered topically as ointment for 21 consecutive days during phase-1 clinical trial; conditions: topical_or_ocular
Rattus norvegicus [18] = experiment: Analgesic activity in rat model of CFA-induced chronic inflammatory pain assessed as reduction in nociceptive threshold at 200 mg/kg, po by Von Frey filament assay; format: functional, organism-based
Homo sapiens [19] = experiment: Toxicity in human assessed as change in laboratory assessments at 4 to 8% (w/w) administered topically as ointment for 21 consecutive days during phase-1 clinical trial; conditions: topical_or_ocular
Homo sapiens [20] = experiment: Analgesic activity in human assessed as dental pain relief at 500 mg administered as single dose measured 4 to 12 hrs post dose; format: functional
Homo sapiens [21] = experiment: Toxicity in human assessed as change in vital signs at 4 to 8% (w/w) administered topically as ointment for 21 consecutive days during phase-1 clinical trial; conditions: topical_or_ocular
Homo sapiens [22] = experiment: Toxicity in human assessed as change in QTc interval at 4 to 8% (w/w) administered topically as ointment for 21 consecutive days during phase-1 clinical trial; conditions: topical_or_ocular
Homo sapiens [23] = experiment: Toxicity in human assessed as change in quiescent resting state at 4 to 8% (w/w) administered topically as ointment for 21 consecutive days during phase-1 clinical trial; conditions: topical_or_ocular
Homo sapiens [24] = experiment: Toxicity in human assessed as serious adverse events at 4 to 8% (w/w) administered topically as ointment for 21 consecutive days during phase-1 clinical trial; conditions: topical_or_ocular
Rattus norvegicus [25] = experiment: Drug level in rat model of CFA-induced chronic inflammatory pain assessed as high plasma concentration at 200 mg/kg, po […]; format: ADME, organism-based; conditions: in vivo

Sequence of Sodium channel protein type 9 subunit alpha (Homo sapiens) (Q15858 whole entry, looked up): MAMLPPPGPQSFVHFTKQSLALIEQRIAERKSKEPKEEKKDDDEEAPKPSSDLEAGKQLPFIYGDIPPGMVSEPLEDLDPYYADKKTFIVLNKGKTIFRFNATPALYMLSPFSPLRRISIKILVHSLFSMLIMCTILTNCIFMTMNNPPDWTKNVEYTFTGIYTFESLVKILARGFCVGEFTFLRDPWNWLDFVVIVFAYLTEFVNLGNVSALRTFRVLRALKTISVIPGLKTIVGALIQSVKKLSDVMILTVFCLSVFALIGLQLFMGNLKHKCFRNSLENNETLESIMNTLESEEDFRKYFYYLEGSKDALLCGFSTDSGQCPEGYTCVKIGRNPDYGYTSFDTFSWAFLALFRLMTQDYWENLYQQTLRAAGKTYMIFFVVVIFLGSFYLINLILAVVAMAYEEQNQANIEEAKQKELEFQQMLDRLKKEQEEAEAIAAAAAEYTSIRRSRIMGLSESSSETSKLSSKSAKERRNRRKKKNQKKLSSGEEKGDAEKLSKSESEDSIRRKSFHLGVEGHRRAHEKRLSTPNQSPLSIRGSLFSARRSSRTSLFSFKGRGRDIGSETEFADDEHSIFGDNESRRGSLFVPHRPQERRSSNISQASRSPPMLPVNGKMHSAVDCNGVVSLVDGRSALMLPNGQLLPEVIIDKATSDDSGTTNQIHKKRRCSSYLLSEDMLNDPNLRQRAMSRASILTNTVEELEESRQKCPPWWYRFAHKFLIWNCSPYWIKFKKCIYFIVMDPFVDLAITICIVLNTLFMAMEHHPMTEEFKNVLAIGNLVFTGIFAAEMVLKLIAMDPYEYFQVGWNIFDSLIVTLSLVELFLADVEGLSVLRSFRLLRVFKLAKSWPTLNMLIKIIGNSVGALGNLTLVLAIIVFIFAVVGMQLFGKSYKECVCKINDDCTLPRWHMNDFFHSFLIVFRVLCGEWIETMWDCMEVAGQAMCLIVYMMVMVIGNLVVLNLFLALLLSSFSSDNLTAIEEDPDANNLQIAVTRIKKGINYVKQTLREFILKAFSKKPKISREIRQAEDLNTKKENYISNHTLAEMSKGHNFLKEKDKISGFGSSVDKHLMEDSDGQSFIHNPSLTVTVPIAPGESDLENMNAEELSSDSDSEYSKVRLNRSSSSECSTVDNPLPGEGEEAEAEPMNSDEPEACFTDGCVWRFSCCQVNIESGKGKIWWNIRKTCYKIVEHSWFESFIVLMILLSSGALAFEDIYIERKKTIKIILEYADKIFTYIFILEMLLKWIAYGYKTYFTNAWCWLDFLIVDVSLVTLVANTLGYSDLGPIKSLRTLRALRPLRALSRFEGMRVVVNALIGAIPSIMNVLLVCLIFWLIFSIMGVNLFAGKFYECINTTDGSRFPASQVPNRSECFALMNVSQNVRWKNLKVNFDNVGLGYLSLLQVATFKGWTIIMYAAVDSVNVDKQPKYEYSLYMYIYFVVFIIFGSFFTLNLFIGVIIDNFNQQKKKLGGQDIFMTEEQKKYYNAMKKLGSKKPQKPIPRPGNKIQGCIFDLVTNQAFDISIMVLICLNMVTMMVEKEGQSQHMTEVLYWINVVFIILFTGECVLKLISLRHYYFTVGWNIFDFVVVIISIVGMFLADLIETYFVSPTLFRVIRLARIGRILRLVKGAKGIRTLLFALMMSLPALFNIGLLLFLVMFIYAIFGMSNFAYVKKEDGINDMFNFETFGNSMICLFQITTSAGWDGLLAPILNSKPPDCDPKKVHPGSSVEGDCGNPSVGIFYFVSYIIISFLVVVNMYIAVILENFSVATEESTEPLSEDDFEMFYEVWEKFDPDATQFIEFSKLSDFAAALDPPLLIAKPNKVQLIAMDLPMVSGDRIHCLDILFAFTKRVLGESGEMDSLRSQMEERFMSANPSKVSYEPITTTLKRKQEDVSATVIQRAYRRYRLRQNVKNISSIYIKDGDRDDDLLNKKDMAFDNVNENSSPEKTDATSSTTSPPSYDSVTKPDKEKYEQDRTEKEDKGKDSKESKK

Row | Compound | solubility [1] [mg/mL] | solubility [2] [mg/mL] | solubility [3] [mg/mL] | solubility [4] [mg/mL] | Activity (Rattus norvegicus [5]) | solubility [7] [mg/mL] | solubility [8] [mg/mL] | Kr [9] [µM] | solubility [10] [mg/mL] | Activity (Rattus norvegicus [18]) | also measured
1 | O=C1N(Cc2ccc(C(F)(F)F)o2)c2ccccc2C12COc1cc3c(cc12)OCO3 (configuration not stated) | < 50 | 70.4 (≈ 164 mM) | 18.1 (≈ 42.2 mM) | 44.4 (≈ 103 mM) | Active | 64 (≈ 149 mM) | 72.5 (≈ 169 mM) | > 10 | 74.2 (≈ 173 mM) | – | solubility [6]: 2.7 mg/mL (≈ 6.29 mM)
2 | CCCCCCCCCCCCOS(=O)(=O)[O-].[Na+] [SODIUM LAURYL SULFATE] | – | – | – | – | – | – | – | – | – | – | Activity (Homo sapiens [11]): Toxic
3 | O=C1N(Cc2ccc(C(F)(F)F)o2)c2ccccc2[C@]12COc1cc3c(cc12)OCO3 [FUNAPIDE] | > 55 | 182 (≈ 424 mM) | 96 (≈ 224 mM) | 191 (≈ 445 mM) | Active | > 123 | 231 (≈ 538 mM) | > 10 | 186 (≈ 433 mM) | Active | Activity (Homo sapiens [12]): Non-Toxic; Activity (Homo sapiens [13]): Non-Toxic; Activity (Rattus norvegicus [14]): 45.06 - 45.1%; Activity (Homo sapiens [15]): Non-Toxic; Activity (Homo sapiens [16]): Non-Toxic; Activity (Homo sapiens [17]): Non-Toxic; Activity (Homo sapiens [19]): Non-Toxic; Activity (Homo sapiens [20]): Active; Activity (Homo sapiens [21]): Non-Toxic; Activity (Homo sapiens [22]): Non-Toxic; Activity (Homo sapiens [23]): Non-Toxic; Activity (Homo sapiens [24]): Non-Toxic
4 | O=C1N(Cc2ccc(C(F)(F)F)o2)c2ccccc2[C@@]12COc1cc3c(cc12)OCO3 | – | – | – | – | inactive | – | – | > 10 | – | Active | Drug uptake (Rattus norvegicus [25]): Active
